Measured values as given in article PMC10895652, “Preclinical Evaluation of Novel Positron Emission Tomography (PET) Probes for Imaging Leucine-Rich Repeat Kinase 2 (LRRK2)” (Journal of Medicinal Chemistry, 2024).

Experiments:
[1] = Radiometabolite analysis in rat plasma (radio-HPLC); format: in vivo; conditions: rats
Description: The promising pharmacological, pharmacokinetic, and in vitro autoradiographic data encouraged us to carry out preliminary dynamic PET imaging studies of [^11C]3 and [^18F]4. […] Given the superiority of fluorine-18 such as clean positron emission, low positron range, and relatively long half-life compared with carbon-11, [^18F]4 was subjected to further investigation (Figure 6). A blocking scan was carried out with intravenous administration of compound 3 (1 mg/kg) prior to tracer injection. For both baseline and blocking studies, blood samples were extracted from the artery. Both whole-blood and plasma radioactivity concentrations were evaluated, and radiometabolites were measured in plasma samples by radio high-performance liquid chromatography (HPLC) to generate metabolite-corrected input function (Figure S2). Compartmental analyses with one- and two-tissue compartment models (1TCM and 2TCM) were carried out on regional time–activity curves. […] In the baseline study, VT of various brain regions ranged from 2.2 to 2.9 mL/cm^3, confirming the high binding of the radiotracer.

LRRK2 [2] = target: T1, LRRK2 (Rattus norvegicus, UniProt F1LNJ1); assay: In vitro autoradiography in rat brain sections; format: binding
T1 construct: from tissue; host or cells: rat brain (Sprague-Dawley rats)
Description: The general procedure for autoradiography studies was described previously with minor revision in this work.[36],[40] Brain sections from rats were preincubated with Tris-HCl buffer (50 mM), MgCl2 (1.2 mM) and CaCl2 (2 mM) solution for 20 min at ambient temperature, followed by incubation with [^11C]3 and [^18F]4 (0.48 nM). […] After incubation, brain sections were rinsed with ice-cold buffer 3 times for 2 min and dipped in cold distilled water for 10 s. The brain sections were dried with cold air and then placed on imaging plates (BAS-MS2025, GE Healthcare, NJ) for optimized contact periods. Autoradiograms were obtained and regions of interest (ROIs) were carefully drawn with the reference of naked-eye observation. Radioactivity was measured using an Amersham Typhoon 5 analyzer system and expressed as photostimulated luminescence values per unit area (PSL/mm^2) or normalized to % of radioactivity vs control.

LRRK2-G2019S = assay: PET imaging in LRRK2-G2019S mutant versus wild-type mice; format: in vivo, mouse; conditions: brain, G2019S mice versus WT mice, p ≤ 0.001
Description: (§1) The general procedure for PET studies was described previously[35],[41] with minor modification in this work. Briefly, PET scans were carried out by a Genisys 4 PET scanner (Sofie Biosciences, Culver, CA). Mice were kept under anesthesia using 1–2% (v/v) isoflurane during the scan. The radiotracer (ca. 45 μCi/100 μL) was injected into the tail vein via a preinstalled catheter. A dynamic scan in 3D list mode was acquired for 60 min. The PET dynamic images were reconstructed using G4 software (Analysis Tools and System Setup/Diagnostics Tool, Sofie Biosciences). The radioactivity was decay-corrected and expressed as the standardized uptake value: SUV = (radioactivity per mL tissue/injected radioactivity) × body weight.

LRRK2 [3] = target: T2, LRRK2 (Mus musculus, UniProt Q5S006); assay: PET imaging in LPS-injected neuroinflammatory mouse model; format: in vivo; conditions: brain, LPS-injected mice versus sham group (PBS)
T2 construct: from tissue; host or cells: brain of living CD-1 mice, i.c.v; LPS or saline
Description: The CD-1 mice were anesthetized and secured in a stereotaxic frame. The skull was exposed and stereotaxic coordinates (−2.6 mm dorsal/ventral, −1.5 mm lateral, and −0.2 mm anterior/posterior from bregma) according to the procedure by Haley and McCormick.[43] The i.c.v. injections of 10 μg (in 2 μL of saline) of LPS and saline (control group) injections were administered using a microsyringe. The behavior of each mouse was characterized and recorded in the form of scores, including appearance, activity, level of consciousness, eyes, respiration rate, and respiration quality. Scores were determined by summing up the individual scores (Figure S10).
as §1

[4] = Ex vivo whole-body biodistribution in mice; parameters: species or system CD-1 mice; conditions: for Ex vivo biodistribution: mean ± SD, n = 4
Description: The general procedure for ex vivo biodistribution studies was described previously[35],[41] with minor modification in this work. Briefly, a solution of [^18F]4 (50 μCi/100 μL) was injected into CD-1 mice via tail vein. These mice (each time point n = 4) were sacrificed at 5, 15, 30, and 60 min post tracer injection. Major organs, including whole brain, heart, liver, lung, spleen, kidneys, small intestine (including contents), muscle, and blood samples, were quickly harvested and weighted. The radioactivity present in these tissues was measured using a Cobra Model 5002/5003 γ counter, and all radioactivity measurements were automatically decay-corrected based on the half-life of fluorine-18. The results are expressed as the percentage of injected dose per gram of wet tissue (%ID/g).

[5] = Radiometabolic analysis in mouse brain homogenate; format: in vivo; conditions: 30 min post tracer administration
Description: With the established good BBB penetration ability of [^18F]4, we then performed ex vivo biodistribution studies to obtain more in-depth information on the whole-body distribution and clearance of [^18F]4. Mice were sorted into four groups based on their survival intervals (5, 15, 30, and 60 min) after intravenous administration of [^18F]4. […] To investigate the in vivo stability of [^18F]4 in mouse brains, we conducted a radiometabolic analysis in mouse brain homogenate at 30 min post tracer administration.

T1 sequence (F1LNJ1 1-2526): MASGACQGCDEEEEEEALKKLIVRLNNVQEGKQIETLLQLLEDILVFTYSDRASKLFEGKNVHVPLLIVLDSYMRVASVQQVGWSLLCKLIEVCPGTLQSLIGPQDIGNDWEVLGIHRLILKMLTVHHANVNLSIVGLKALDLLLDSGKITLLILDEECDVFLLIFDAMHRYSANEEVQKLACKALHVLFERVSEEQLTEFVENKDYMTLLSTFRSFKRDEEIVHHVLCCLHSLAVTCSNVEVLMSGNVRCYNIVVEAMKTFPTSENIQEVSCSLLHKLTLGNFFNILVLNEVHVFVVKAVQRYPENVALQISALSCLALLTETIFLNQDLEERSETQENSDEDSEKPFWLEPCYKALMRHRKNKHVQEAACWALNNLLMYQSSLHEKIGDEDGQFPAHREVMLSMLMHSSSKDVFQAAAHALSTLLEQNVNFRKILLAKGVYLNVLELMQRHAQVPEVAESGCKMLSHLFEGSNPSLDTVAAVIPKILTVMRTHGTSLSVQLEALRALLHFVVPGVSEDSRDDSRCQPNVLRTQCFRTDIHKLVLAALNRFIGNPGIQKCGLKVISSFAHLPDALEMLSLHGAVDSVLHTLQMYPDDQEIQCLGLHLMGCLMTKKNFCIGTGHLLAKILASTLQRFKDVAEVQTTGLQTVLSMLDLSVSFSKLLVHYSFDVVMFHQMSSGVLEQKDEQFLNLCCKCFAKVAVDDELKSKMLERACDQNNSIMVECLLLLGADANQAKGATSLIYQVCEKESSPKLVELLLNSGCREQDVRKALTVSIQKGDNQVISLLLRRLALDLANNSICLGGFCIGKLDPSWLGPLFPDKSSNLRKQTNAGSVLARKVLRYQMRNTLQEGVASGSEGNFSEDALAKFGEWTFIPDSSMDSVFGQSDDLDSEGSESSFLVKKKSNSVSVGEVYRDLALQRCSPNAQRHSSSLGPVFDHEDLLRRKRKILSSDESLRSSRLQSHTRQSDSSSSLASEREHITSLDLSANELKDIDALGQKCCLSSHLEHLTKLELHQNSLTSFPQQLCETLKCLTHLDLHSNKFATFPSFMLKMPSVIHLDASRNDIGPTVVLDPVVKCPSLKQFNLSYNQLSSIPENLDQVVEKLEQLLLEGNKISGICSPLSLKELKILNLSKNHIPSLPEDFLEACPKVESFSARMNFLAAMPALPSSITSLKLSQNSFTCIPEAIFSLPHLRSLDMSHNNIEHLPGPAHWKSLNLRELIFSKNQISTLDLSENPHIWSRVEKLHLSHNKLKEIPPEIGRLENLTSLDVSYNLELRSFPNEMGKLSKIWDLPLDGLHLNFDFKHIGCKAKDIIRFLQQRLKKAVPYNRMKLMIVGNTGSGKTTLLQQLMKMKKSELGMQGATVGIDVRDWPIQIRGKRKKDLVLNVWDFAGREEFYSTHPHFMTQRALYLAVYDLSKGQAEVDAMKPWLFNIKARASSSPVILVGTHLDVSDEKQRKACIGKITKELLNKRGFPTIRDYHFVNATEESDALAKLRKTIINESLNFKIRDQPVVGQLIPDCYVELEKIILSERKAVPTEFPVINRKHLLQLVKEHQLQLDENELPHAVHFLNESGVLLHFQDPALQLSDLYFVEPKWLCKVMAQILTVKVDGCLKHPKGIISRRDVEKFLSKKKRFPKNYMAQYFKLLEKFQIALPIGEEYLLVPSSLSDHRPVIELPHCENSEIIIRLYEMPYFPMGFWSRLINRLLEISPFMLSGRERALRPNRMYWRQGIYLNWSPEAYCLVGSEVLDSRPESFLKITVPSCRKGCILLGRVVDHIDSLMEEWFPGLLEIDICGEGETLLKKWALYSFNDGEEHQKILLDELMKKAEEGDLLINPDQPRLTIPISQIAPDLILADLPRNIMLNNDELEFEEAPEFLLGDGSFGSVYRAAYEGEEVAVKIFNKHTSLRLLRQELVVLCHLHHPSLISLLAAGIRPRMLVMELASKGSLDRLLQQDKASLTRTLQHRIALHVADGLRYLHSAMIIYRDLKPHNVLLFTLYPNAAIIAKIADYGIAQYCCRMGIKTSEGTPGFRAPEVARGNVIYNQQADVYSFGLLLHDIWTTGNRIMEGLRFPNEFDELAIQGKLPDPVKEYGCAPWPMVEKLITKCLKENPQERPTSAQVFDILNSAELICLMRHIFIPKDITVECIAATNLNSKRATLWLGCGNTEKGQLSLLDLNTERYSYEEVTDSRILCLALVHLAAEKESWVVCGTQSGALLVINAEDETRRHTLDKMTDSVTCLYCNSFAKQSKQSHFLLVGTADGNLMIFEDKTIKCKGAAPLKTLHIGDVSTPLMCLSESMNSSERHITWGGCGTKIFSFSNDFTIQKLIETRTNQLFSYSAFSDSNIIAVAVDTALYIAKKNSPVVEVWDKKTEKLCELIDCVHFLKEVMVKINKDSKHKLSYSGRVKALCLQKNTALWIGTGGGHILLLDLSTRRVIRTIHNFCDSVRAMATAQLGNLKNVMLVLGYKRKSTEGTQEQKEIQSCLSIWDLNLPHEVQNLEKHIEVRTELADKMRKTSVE
T2 sequence (Q5S006 whole entry): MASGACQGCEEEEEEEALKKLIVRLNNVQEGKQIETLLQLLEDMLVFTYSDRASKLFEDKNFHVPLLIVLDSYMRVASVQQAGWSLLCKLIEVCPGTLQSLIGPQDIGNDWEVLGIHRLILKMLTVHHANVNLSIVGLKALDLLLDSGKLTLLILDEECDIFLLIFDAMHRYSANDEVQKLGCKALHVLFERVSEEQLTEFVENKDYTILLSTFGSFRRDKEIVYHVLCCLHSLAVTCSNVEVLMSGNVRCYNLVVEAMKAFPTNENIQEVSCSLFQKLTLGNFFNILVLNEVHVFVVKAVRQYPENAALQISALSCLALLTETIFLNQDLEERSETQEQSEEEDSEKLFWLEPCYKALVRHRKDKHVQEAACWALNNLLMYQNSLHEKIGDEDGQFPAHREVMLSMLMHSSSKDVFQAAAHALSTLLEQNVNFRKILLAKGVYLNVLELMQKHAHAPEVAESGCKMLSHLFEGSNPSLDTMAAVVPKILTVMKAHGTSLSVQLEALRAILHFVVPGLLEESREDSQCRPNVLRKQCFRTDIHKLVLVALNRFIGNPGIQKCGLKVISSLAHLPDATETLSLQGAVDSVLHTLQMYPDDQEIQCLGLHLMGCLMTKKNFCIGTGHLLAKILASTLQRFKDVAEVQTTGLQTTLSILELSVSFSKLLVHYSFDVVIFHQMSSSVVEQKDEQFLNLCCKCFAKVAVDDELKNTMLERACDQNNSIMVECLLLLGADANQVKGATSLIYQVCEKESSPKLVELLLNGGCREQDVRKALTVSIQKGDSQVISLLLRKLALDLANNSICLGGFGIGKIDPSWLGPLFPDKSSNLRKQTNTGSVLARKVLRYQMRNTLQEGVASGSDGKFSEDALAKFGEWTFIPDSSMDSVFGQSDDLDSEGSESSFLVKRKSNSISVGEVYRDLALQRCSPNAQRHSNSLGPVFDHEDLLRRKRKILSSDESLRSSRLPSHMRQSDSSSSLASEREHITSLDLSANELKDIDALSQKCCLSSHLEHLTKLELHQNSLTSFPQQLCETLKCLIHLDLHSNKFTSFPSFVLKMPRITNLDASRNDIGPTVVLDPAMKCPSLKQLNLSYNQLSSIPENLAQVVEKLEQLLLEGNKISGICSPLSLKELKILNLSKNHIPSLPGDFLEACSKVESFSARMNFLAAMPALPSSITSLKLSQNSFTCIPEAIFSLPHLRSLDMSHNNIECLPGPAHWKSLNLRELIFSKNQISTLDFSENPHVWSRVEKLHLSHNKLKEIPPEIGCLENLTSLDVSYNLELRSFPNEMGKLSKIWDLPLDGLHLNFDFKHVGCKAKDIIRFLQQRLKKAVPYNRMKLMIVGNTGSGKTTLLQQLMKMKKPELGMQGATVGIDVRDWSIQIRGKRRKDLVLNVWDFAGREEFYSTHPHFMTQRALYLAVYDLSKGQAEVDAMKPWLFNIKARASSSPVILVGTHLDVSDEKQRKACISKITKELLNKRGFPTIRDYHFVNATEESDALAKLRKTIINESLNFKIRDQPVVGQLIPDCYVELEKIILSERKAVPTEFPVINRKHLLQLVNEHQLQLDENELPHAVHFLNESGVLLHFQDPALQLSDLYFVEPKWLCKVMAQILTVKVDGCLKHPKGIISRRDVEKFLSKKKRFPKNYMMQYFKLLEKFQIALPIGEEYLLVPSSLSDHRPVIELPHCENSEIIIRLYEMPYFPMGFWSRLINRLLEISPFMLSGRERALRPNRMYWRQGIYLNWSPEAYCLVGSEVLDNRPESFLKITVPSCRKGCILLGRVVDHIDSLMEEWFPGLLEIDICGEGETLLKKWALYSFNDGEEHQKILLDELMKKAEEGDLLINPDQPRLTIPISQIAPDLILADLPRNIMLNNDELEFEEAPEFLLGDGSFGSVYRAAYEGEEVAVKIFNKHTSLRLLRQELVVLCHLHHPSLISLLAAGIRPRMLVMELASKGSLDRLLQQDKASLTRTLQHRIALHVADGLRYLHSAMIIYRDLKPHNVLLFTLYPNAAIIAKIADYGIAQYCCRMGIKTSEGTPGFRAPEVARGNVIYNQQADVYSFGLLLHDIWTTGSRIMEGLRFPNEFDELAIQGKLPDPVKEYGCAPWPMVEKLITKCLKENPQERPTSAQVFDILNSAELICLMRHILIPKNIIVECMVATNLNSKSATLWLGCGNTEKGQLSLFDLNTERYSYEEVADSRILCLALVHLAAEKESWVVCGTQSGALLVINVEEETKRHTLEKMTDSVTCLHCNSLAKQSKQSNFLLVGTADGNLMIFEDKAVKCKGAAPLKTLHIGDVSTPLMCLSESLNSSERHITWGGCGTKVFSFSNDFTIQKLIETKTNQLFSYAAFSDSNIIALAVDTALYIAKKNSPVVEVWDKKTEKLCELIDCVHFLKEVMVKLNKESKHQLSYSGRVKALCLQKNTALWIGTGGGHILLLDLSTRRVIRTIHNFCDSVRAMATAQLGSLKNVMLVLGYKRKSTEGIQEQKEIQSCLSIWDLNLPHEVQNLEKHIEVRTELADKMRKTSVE

**Q.** With `N#Cc1cccc(-c2c[nH]c3ncnc(N4CCOCC4)c23)c1[18F]` [[^18F]4] as the compound, how does the “parent fraction in plasma” value ([1]; 30 min post tracer administration) read?
**A.** 38%

**Q.** What about the “parent fraction in plasma” value ([1]; 60 min post tracer administration) of the same compound?
**A.** 23%

**Q.** What about the “radioactivity levels under blocking with GNE-0877” value (LRRK2 [2]; LRRK2-deficient brain regions (cerebellum and midbrain)) of the same compound?
**A.** no obvious blocking results

**Q.** What about the “radioactivity levels under blocking with GNE-0877” value (LRRK2 [2]; LRRK2-rich brain regions (hippocampus, cerebral cortex, striatum, thalamus)) of the same compound?
**A.** significantly reduced

**Q.** What about the “increase of radioactivity accumulation based on AUC” value (LRRK2-G2019S) of the same compound?
**A.** around 22%

**Q.** What about the “increase of radioactivity based on the AUCs” value (LRRK2 [3]) of the same compound?
**A.** 28%

**Q.** What about the de-radiofluorination in vivo ([4]; biodistribution study, up to 60 min) of the same compound?
**A.** no remarkable de-radiofluorination

**Q.** And the Ex vivo biodistribution ([4]; blood, 5 min)?
**A.** 1.98 ± 0.08 %ID/g

**Q.** And the Ex vivo biodistribution ([4]; blood, 15 min)?
**A.** 1.12 ± 0.16 %ID/g

**Q.** And the Ex vivo biodistribution ([4]; blood, 30 min)?
**A.** 0.60 ± 0.08 %ID/g

**Q.** And the Ex vivo biodistribution ([4]; blood, 60 min)?
**A.** 0.37 ± 0.09 %ID/g

**Q.** What about the Ex vivo biodistribution ([4]; bone, 5 min) of the same compound?
**A.** 2.89 ± 2.05 %ID/g

**Q.** What about the Ex vivo biodistribution ([4]; bone, 15 min) of the same compound?
**A.** 1.06 ± 0.23 %ID/g

**Q.** What about the Ex vivo biodistribution ([4]; bone, 30 min) of the same compound?
**A.** 0.57 ± 0.05 %ID/g

**Q.** What about the Ex vivo biodistribution ([4]; bone, 60 min) of the same compound?
**A.** 0.82 ± 0.22 %ID/g

**Q.** What about the Ex vivo biodistribution ([4]; brain, 5 min) of the same compound?
**A.** 3.61 ± 0.74 %ID/g

**Q.** What about the Ex vivo biodistribution ([4]; brain, 15 min) of the same compound?
**A.** 0.91 ± 0.21 %ID/g

**Q.** What about the Ex vivo biodistribution ([4]; brain, 30 min) of the same compound?
**A.** 0.14 ± 0.01 %ID/g

**Q.** And the Ex vivo biodistribution ([4]; brain, 60 min)?
**A.** 0.04 ± 0.01 %ID/g

**Q.** And the Ex vivo biodistribution ([4]; heart, 5 min)?
**A.** 3.63 ± 0.10 %ID/g

**Q.** What about the Ex vivo biodistribution ([4]; heart, 15 min) of the same compound?
**A.** 1.49 ± 0.17 %ID/g

**Q.** What about the Ex vivo biodistribution ([4]; heart, 30 min) of the same compound?
**A.** 0.49 ± 0.07 %ID/g

**Q.** What about the Ex vivo biodistribution ([4]; heart, 60 min) of the same compound?
**A.** 0.25 ± 0.03 %ID/g

**Q.** What about the Ex vivo biodistribution ([4]; kidneys, 5 min) of the same compound?
**A.** 9.96 ± 1.01 %ID/g

**Q.** What about the Ex vivo biodistribution ([4]; kidneys, 15 min) of the same compound?
**A.** 6.41 ± 0.76 %ID/g

**Q.** What about the Ex vivo biodistribution ([4]; kidneys, 30 min) of the same compound?
**A.** 2.74 ± 0.12 %ID/g

**Q.** What about the Ex vivo biodistribution ([4]; kidneys, 60 min) of the same compound?
**A.** 1.32 ± 0.15 %ID/g

**Q.** And the Ex vivo biodistribution ([4]; liver, 5 min)?
**A.** 24.68 ± 10.36 %ID/g

**Q.** And the Ex vivo biodistribution ([4]; liver, 15 min)?
**A.** 15.53 ± 2.40 %ID/g

**Q.** And the Ex vivo biodistribution ([4]; liver, 30 min)?
**A.** 7.34 ± 0.78 %ID/g

**Q.** And the Ex vivo biodistribution ([4]; liver, 60 min)?
**A.** 3.97 ± 1.30 %ID/g

**Q.** What about the Ex vivo biodistribution ([4]; lungs, 5 min) of the same compound?
**A.** 8.88 ± 2.99 %ID/g

**Q.** What about the Ex vivo biodistribution ([4]; lungs, 15 min) of the same compound?
**A.** 5.46 ± 2.28 %ID/g

**Q.** What about the Ex vivo biodistribution ([4]; lungs, 30 min) of the same compound?
**A.** 2.86 ± 0.67 %ID/g

**Q.** What about the Ex vivo biodistribution ([4]; lungs, 60 min) of the same compound?
**A.** 1.65 ± 0.35 %ID/g

**Q.** And the Ex vivo biodistribution ([4]; muscle, 5 min)?
**A.** 2.34 ± 1.06 %ID/g

**Q.** What about the Ex vivo biodistribution ([4]; muscle, 15 min) of the same compound?
**A.** 2.04 ± 2.24 %ID/g

**Q.** What about the Ex vivo biodistribution ([4]; muscle, 30 min) of the same compound?
**A.** 0.38 ± 0.11 %ID/g

**Q.** What about the Ex vivo biodistribution ([4]; muscle, 60 min) of the same compound?
**A.** 0.39 ± 0.40 %ID/g

**Q.** And the Ex vivo biodistribution ([4]; pancreas, 5 min)?
**A.** 16.19 ± 1.99 %ID/g

**Q.** What about the Ex vivo biodistribution ([4]; pancreas, 15 min) of the same compound?
**A.** 5.75 ± 2.56 %ID/g

**Q.** And the Ex vivo biodistribution ([4]; pancreas, 30 min)?
**A.** 1.26 ± 0.25 %ID/g

**Q.** What about the Ex vivo biodistribution ([4]; pancreas, 60 min) of the same compound?
**A.** 0.76 ± 0.55 %ID/g

**Q.** What about the Ex vivo biodistribution ([4]; small intestine, 5 min) of the same compound?
**A.** 58.87 ± 18.10 %ID/g

**Q.** And the Ex vivo biodistribution ([4]; small intestine, 15 min)?
**A.** 58.62 ± 13.63 %ID/g

**Q.** What about the Ex vivo biodistribution ([4]; small intestine, 30 min) of the same compound?
**A.** 20.55 ± 17.97 %ID/g

**Q.** And the Ex vivo biodistribution ([4]; small intestine, 60 min)?
**A.** 26.44 ± 36.34 %ID/g

**Q.** And the Ex vivo biodistribution ([4]; spleen, 5 min)?
**A.** 4.38 ± 0.99 %ID/g

**Q.** What about the Ex vivo biodistribution ([4]; spleen, 15 min) of the same compound?
**A.** 2.12 ± 1.24 %ID/g

**Q.** And the Ex vivo biodistribution ([4]; spleen, 30 min)?
**A.** 0.52 ± 0.07 %ID/g

**Q.** What about the Ex vivo biodistribution ([4]; spleen, 60 min) of the same compound?
**A.** 0.39 ± 0.29 %ID/g

**Q.** And the “initial radioactive signals in peripheral organs” value ([4]; spleen, heart, lungs, pancreas, stomach, small intestine, kidneys, liver)?
**A.** > 4 %ID/g

**Q.** And the Ex vivo biodistribution ([4]; stomach, 5 min)?
**A.** 5.72 ± 2.69 %ID/g

**Q.** What about the Ex vivo biodistribution ([4]; stomach, 15 min) of the same compound?
**A.** 5.69 ± 1.06 %ID/g

**Q.** What about the Ex vivo biodistribution ([4]; stomach, 30 min) of the same compound?
**A.** 7.88 ± 5.2 %ID/g

**Q.** And the Ex vivo biodistribution ([4]; stomach, 60 min)?
**A.** 2.41 ± 1.31 %ID/g

**Q.** And the “parent fraction in mouse brain homogenate” value [5]?
**A.** 69%
